Reference: patent US10376520B2, “Methods for the treatment of cardiovascular disorders” (Galapagos NV, priority 2015, dated 2019)

Tested on: Subjects With Active Crohn's Disease
Experiment: Total cholesterol determination, Study 5 (Crohn's disease, monotherapy of Compound 1)
Assay type: in vivo, human
Settings: for [Total cholesterol] Mean CFB - 20 weeks results / [Total cholesterol] Median CFB - 20 weeks results: placebo week 0 to 10, to 100 mg q.d. week 10 to 20
Text: Double-Blind, Randomized, Placebo-Controlled, Multi-Centre Study to Investigate the Efficacy and Safety of Compound 1 in Subjects With Active Crohn's Disease With Evidence of Mucosal Ulceration.
This is a double-blind, randomized, placebo-controlled, multi-centre Phase 2 study to investigate the efficacy and safety of Compound 1 administered once daily for the treatment of active CD with evidence of mucosal ulceration. The pharmacokinetics (including a PK substudy) and pharmacodynamics of Compound 1 and metabolite in CD will also be characterised.
A total of 180 eligible subjects will be randomized to receive Compound 1 or placebo in addition to their stable background treatment (eg, corticosteroids, aminosalicylates, or CD-related antibiotics). The study will consist of 2 parts, with total treatment duration of 20 weeks. Randomization in Part 1 will be stratified according the subject's previous anti-TNF exposure/response, CRP level at Screening, and oral corticosteroid use at visit Day −1.
After the first 10 weeks of treatment in Part 1, patients will be re-randomized for Part 2 as shown in the diagram below and will be stratified according to the subject's clinical response, previous anti-TNF exposure/response, and oral corticosteroid use at visit Day −1.
The following assays were conducted at Eurofins Global Central Laboratory, Bergschot 71, 4817 PA Breda, The Netherlands, and at Quest Diagnostics, Clinical Trials, Quest House, 125-135 Staines Road, Hounslow, Middlesex, TW3 3JB, United Kingdom. The assays for Study 5 were performed at BARC Europe, 3B, Industrie Park, Zwijnaarde, B-9052 Ghent, Belgium.
This method is based on the determination of Δ^4 cholestenone after enzymatic cleavage of the cholesterol ester by cholesterol esterase, conversion of cholesterol by cholesterol oxidase, and subsequent measurement by the Trinder reaction of the hydrogen peroxide formed (Allain et al., 1974).
Cholesterol esters are cleaved by the action of cholesterol esterase to yield free cholesterol and fatty acids. Cholesterol oxidase then catalyzes the oxidation of cholesterol to cholest-4-en-3-one and hydrogen peroxide. In the presence of peroxidase, the hydrogen peroxide formed effects the oxidative coupling of phenol and 4-aminophenazone to form a red quinone-imine dye. The color intensity of the dye formed is directly proportional to the cholesterol concentration. It is determined by measuring the increase in absorbance.
Human serum and plasma samples cholesterol determination was done on a Roche/Hitachi Cobas c 701/702 system which automatically calculate the analyte concentration of each sample.

[1] = Study 5 10 weeks results, 200 mg q.d., week 10
[2] = Study 5 20 weeks results, 200 mg q.d. to 100 mg q.d. at week 10, week 2
[3] = Study 5 20 weeks results, 200 mg q.d. to 100 mg q.d. at week 10, week 4
[4] = Study 5 20 weeks results, 200 mg q.d. to 100 mg q.d. at week 10, week 6
[5] = Study 5 20 weeks results, 200 mg q.d. to 100 mg q.d. at week 10, week 10
[6] = Study 5 20 weeks results, 200 mg q.d. to 100 mg q.d. at week 10, week 12
[7] = Study 5 20 weeks results, 200 mg q.d. to 100 mg q.d. at week 10, week 16
[8] = Study 5 20 weeks results, 200 mg q.d. to 100 mg q.d. at week 10, week 20
[9] = Study 5 20 weeks results, 200 mg q.d. to placebo at week 10, week 2
[10] = Study 5 20 weeks results, 200 mg q.d. to placebo at week 10, week 4
[11] = Study 5 20 weeks results, 200 mg q.d. to placebo at week 10, week 6
[12] = Study 5 20 weeks results, 200 mg q.d. to placebo at week 10, week 10
[13] = Study 5 20 weeks results, 200 mg q.d. to placebo at week 10, week 12
[14] = Study 5 20 weeks results, 200 mg q.d. to placebo at week 10, week 16
[15] = Study 5 20 weeks results, 200 mg q.d. to placebo at week 10, week 20
[16] = Study 5 20 weeks results, continued 200 mg q.d., week 2
[17] = Study 5 20 weeks results, continued 200 mg q.d., week 4
[18] = Study 5 20 weeks results, continued 200 mg q.d., week 6
[19] = Study 5 20 weeks results, continued 200 mg q.d., week 10
[20] = Study 5 20 weeks results, continued 200 mg q.d., week 12
[21] = Study 5 20 weeks results, continued 200 mg q.d., week 16
[22] = Study 5 20 weeks results, continued 200 mg q.d., week 20
[23] = Study 5 20 weeks results, placebo to 100 mg q.d. at week 10, week 12
[24] = Study 5 20 weeks results, placebo to 100 mg q.d. at week 10, week 16
[25] = Study 5 20 weeks results, placebo to 100 mg q.d. at week 10, week 20

SMILES: O=C(Nc1nc2cccc(-c3ccc(CN4CCS(=O)(=O)CC4)cc3)n2n1)C1CC1 [Compound 1, cyclopropanecarboxylic acid {5-[4-(1,1-dioxo-thiomorpholin-4-ylmethyl)-phenyl]-[1,2,4]triazolo[1,5-a]pyridin-2yl}-amide]
- [Total cholesterol] Median CFB [1]: 0.340 mmol/L
- [total cholesterol] Mean CFB [1]: 0.401 mmol/L
- [Total cholesterol] Median CFB [2]: 0.19 mmol/L
- [total cholesterol] Mean CFB [2]: 0.18 mmol/L
- [Total cholesterol] Median CFB [3]: 0.12 mmol/L
- [total cholesterol] Mean CFB [3]: 0.27 mmol/L
- [Total cholesterol] Median CFB [4]: 0.28 mmol/L
- [total cholesterol] Mean CFB [4]: 0.26 mmol/L
- [Total cholesterol] Median CFB [5]: 0.38 mmol/L
- [total cholesterol] Mean CFB [5]: 0.44 mmol/L
- [Total cholesterol] Median CFB [6]: 0.33 mmol/L
- [total cholesterol] Mean CFB [6]: 0.23 mmol/L
- [Total cholesterol] Median CFB [7]: 0.13 mmol/L
- [total cholesterol] Mean CFB [7]: 0.09 mmol/L
- [Total cholesterol] Median CFB [8]: 0.10 mmol/L
- [total cholesterol] Mean CFB [8]: 0.14 mmol/L
- [Total cholesterol] Median CFB [9]: 0.24 mmol/L
- [total cholesterol] Mean CFB [9]: 0.16 mmol/L
- [Total cholesterol] Median CFB [10]: 0.34 mmol/L
- [total cholesterol] Mean CFB [10]: 0.27 mmol/L
- [Total cholesterol] Median CFB [11]: 0.29 mmol/L
- [total cholesterol] Mean CFB [11]: 0.22 mmol/L
- [Total cholesterol] Median CFB [12]: 0.23 mmol/L
- [total cholesterol] Mean CFB [12]: 0.22 mmol/L
- [Total cholesterol] Median CFB [13]: 0.18 mmol/L
- [total cholesterol] Mean CFB [13]: 0.04 mmol/L
- [Total cholesterol] Median CFB [14]: 0.05 mmol/L
- [total cholesterol] Mean CFB [14]: 0.19 mmol/L
- [Total cholesterol] Median CFB [15]: 0.07 mmol/L
- [total cholesterol] Mean CFB [15]: 0.18 mmol/L
- [Total cholesterol] Median CFB [16]: 0.21 mmol/L
- [total cholesterol] Mean CFB [16]: 0.27 mmol/L
- [Total cholesterol] Median CFB [17]: 0.16 mmol/L
- [total cholesterol] Mean CFB [17]: 0.14 mmol/L
- [Total cholesterol] Median CFB [18]: 0.33 mmol/L
- [total cholesterol] Mean CFB [18]: 0.19 mmol/L
- [Total cholesterol] Median CFB [19]: 0.47 mmol/L
- [total cholesterol] Mean CFB [19]: 0.43 mmol/L
- [Total cholesterol] Median CFB [20]: 0.29 mmol/L
- [total cholesterol] Mean CFB [20]: 0.42 mmol/L
- [Total cholesterol] Median CFB [21]: 0.31 mmol/L
- [total cholesterol] Mean CFB [21]: 0.43 mmol/L
- [Total cholesterol] Median CFB [22]: 0.26 mmol/L
- [total cholesterol] Mean CFB [22]: 0.40 mmol/L
- [Total cholesterol] Median CFB [23]: 0.02 mmol/L
- [total cholesterol] Mean CFB [23]: 0.11 mmol/L
- [Total cholesterol] Median CFB [24]: 0.01 mmol/L
- [total cholesterol] Mean CFB [24]: 0.08 mmol/L
- [Total cholesterol] Median CFB [25]: 0.10 mmol/L
- [total cholesterol] Mean CFB [25]: 0.03 mmol/L
- [Total cholesterol] Mean CFB - 20 weeks results (week 12): 2.49%
- [Total cholesterol] Median CFB - 20 weeks results (week 12): 0.41%
- [Total cholesterol] Mean CFB - 20 weeks results (week 16): 2.84%
- [Total cholesterol] Median CFB - 20 weeks results (week 16): 0.19%
- [Total cholesterol] Mean CFB - 20 weeks results (week 20): 1.90%
- [Total cholesterol] Median CFB - 20 weeks results (week 20): 2.81%
